From ChEMBL document CHEMBL1201862, “PubChem BioAssay data set” (2004) come the findings set out here.

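A five-concentration, 48-hour dose response in 96-well plates underlies each endpoint, interpolated linearly between surrounding concentrations. GI50 = concentration required for 50% inhibition of growth.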 The source made the active and inactive calls. Cut-off read from the data, not from the text of the source: active = GI50 up to about 1.1 µM and inactive = higher. A value given as a limit tells only on which side of the number the result lay.

Test systems include K562; IGROV-1; Hs-578T; NCI-H522; MDA-MB-435; OVCAR-4; SN12C; SK-MEL-2; SF-295; RXF 393; CAKI-1; A498; KM12; BT-549; OVCAR-3; 786-0; TK-10; MOLT-4; MDA-N.
Holding throughout (assay): NCI tumour cell line growth inhibition, 48 h

As to `N=C(N)N/N=C\c1ccc(C2CCNCC2)cc1`, the GI50 in the test on K562, in the test with IGROV-1, in the test with Hs-578T, with NCI-H522, with MDA-MB-435 and with OVCAR-4 was > 100 µM (inactive) in each case. In addition, the GI50 in the test on SN12C, in the test on SK-MEL-2, with SF-295, in the test on RXF 393, with CAKI-1 and with A498 was > 100 µM (inactive) each time. The GI50 in the test with KM12, in the test on BT-549, in the test on OVCAR-3, in the test on 786-0, in the test with TK-10 and in the test with MOLT-4 was > 100 µM (inactive) throughout. In addition, in the test on MDA-N, the GI50 is > 100 µM (inactive).
For `O=C1SC(c2ccc(Cl)cc2)(c2ccc(Cl)cc2)c2ccccc21`, the GI50 in the test with K562 is 44.5 µM (inactive); in the test with IGROV-1, > 100 µM (inactive); with Hs-578T it was 81.8 µM (inactive); in the test on NCI-H522 it was 70 µM (inactive); in the test with MDA-MB-435, 61.5 µM (inactive); in the test on OVCAR-4 it was 33.5 µM (inactive). The GI50 in the test on SN12C is > 100 µM (inactive); in the test on SK-MEL-2 it was 22.6 µM (inactive); in the test on SF-295, 97.5 µM (inactive); in the test on RXF 393 it was 39.4 µM (inactive); in the test on CAKI-1, > 100 µM (inactive); in the test with A498, > 100 µM (inactive). The GI50 in the test with KM12 was 66.7 µM (inactive); in the test with BT-549 it was > 100 µM (inactive); in the test on OVCAR-3 it was 79.3 µM (inactive); in the test with 786-0 it was > 100 µM (inactive); with TK-10, > 100 µM (inactive); in the test on MOLT-4, 32.7 µM (inactive). In addition, the GI50 in the test on MDA-N was 62.4 µM (inactive).
In the case of `Cn1c(=O)c2nc(CCNC(=O)c3ccccc3)[nH]c2n(C)c1=O`, the GI50 with K562, in the test with IGROV-1, with Hs-578T, in the test with NCI-H522, in the test with MDA-MB-435 and in the test on OVCAR-4 was > 100 µM (inactive) each time. The GI50 in the test with SN12C, with SK-MEL-2, in the test on SF-295, in the test with RXF 393, in the test on CAKI-1 and in the test on A498 was > 100 µM (inactive) throughout. Also, the GI50 with KM12, with BT-549, in the test with OVCAR-3, in the test on 786-0, in the test on TK-10 and with MOLT-4 was > 100 µM (inactive) throughout. Besides, the GI50 in the test on MDA-N was > 100 µM (inactive).
Consider `CC(=O)O[C@H]1C(=O)[C@@]2(C)[C@H]([C@H](OC(=O)c3ccco3)[C@]3(O)C[C@H](OC(=O)[C@H](O)[C@@H](NC(=O)c4ccccc4)c4ccccc4)C(C)=C1C3(C)C)[C@]1(OC(C)=O)CO[C@@H]1C[C@@H]2O`, for which the GI50 with K562 was 0.078 µM (active); in the test on IGROV-1, 0.251 µM (active); in the test with Hs-578T, 0.0608 µM (active); in the test on NCI-H522, 0.309 µM (active); in the test with MDA-MB-435 it was 0.0165 µM (active); in the test with OVCAR-4, > 22.4 µM (inactive). Also, the GI50 in the test with SN12C was 0.308 µM (active); in the test on SK-MEL-2, 0.0594 µM (active); in the test on SF-295 it was 1.45 µM (inactive); in the test with RXF 393, 0.681 µM (active); with CAKI-1 it was 14.3 µM (inactive); with A498, 3.81 µM (inactive). The GI50 in the test with KM12 is 0.0834 µM (active); in the test on BT-549, 2.81 µM (inactive); in the test on OVCAR-3, 0.0612 µM (active); with 786-0, 1.16 µM (inactive); in the test on TK-10 it was 8.41 µM (inactive); with MOLT-4 it was 0.114 µM (active). In addition, the GI50 in the test with MDA-N was 0.0127 µM (active).
Turning to `NC(=O)C[S+]([O-])CC(N)C(=O)O` (stereo not given), the GI50 in the test on K562, in the test on IGROV-1, in the test with Hs-578T, in the test with NCI-H522, in the test with MDA-MB-435 and in the test with OVCAR-4 was > 100 µM (inactive) each time. The GI50 in the test with SN12C, in the test on SK-MEL-2, in the test with SF-295, in the test on RXF 393, in the test on CAKI-1 and with A498 was > 100 µM (inactive) throughout. Moreover, the GI50 in the test on KM12, in the test on BT-549, in the test on OVCAR-3, in the test with 786-0, with TK-10 and with MOLT-4 was > 100 µM (inactive) in each case. The GI50 with MDA-N is > 100 µM (inactive).
With `Cc1ccc2c(c1)C(=O)c1nc(C)ccc1C2=O`, the GI50 is 37.1 µM (inactive) in the test on K562; 22.1 µM (inactive) in the test with IGROV-1; > 100 µM (inactive) in the test with Hs-578T; 28.7 µM (inactive) in the test with NCI-H522; 21.6 µM (inactive) in the test with MDA-MB-435; 28.2 µM (inactive) in the test on OVCAR-4. Further, the GI50 was 26.5 µM (inactive) in the test on SN12C; > 100 µM (inactive) in the test on SK-MEL-2; 38.1 µM (inactive) with SF-295; 66.7 µM (inactive) in the test on RXF 393; 24.8 µM (inactive) in the test on CAKI-1; 59.3 µM (inactive) with A498. Further, the GI50 with KM12 was 23.3 µM (inactive); with BT-549, 53.7 µM (inactive); with OVCAR-3, 57.1 µM (inactive); with 786-0 it was 43.8 µM (inactive); with TK-10, 38.3 µM (inactive); with MOLT-4, 69.3 µM (inactive). In addition, the GI50 with MDA-N is 20.2 µM (inactive).
Take `Cc1cc(SCC(=O)c2ccc(Br)cc2)cc(C)[o+]1`: the GI50 was 24.9 µM (inactive) in the test with K562; 37.4 µM (inactive) in the test on IGROV-1; 47.6 µM (inactive) in the test on Hs-578T; 21.6 µM (inactive) in the test on NCI-H522; 21.3 µM (inactive) with MDA-MB-435; 24.9 µM (inactive) with OVCAR-4. The GI50 in the test on SN12C was 39 µM (inactive); in the test on SK-MEL-2, 30.8 µM (inactive); in the test with SF-295 it was 26.6 µM (inactive); in the test with RXF 393 it was 28.6 µM (inactive); in the test on CAKI-1, 35.9 µM (inactive); with A498, 27.3 µM (inactive). For the same molecule, the GI50 in the test on KM12 is 24.4 µM (inactive); in the test with BT-549 it was 39.7 µM (inactive); in the test on OVCAR-3, 21.4 µM (inactive); with 786-0 it was 33.5 µM (inactive); in the test on TK-10 it was 35.1 µM (inactive); with MOLT-4, 17.4 µM (inactive). In addition, the GI50 in the test on MDA-N was 30.6 µM (inactive).
In the case of `O=C(c1cccc(F)c1F)N1CCc2c([nH]c3ccccc23)C1c1ccc2c(c1)OCO2` (stereo not given), the GI50 in the test with K562 is 4.22 µM (inactive); with IGROV-1, 16.2 µM (inactive); in the test with Hs-578T, 23.8 µM (inactive); with NCI-H522, 7.8 µM (inactive); in the test on MDA-MB-435, 2.23 µM (inactive); in the test with OVCAR-4, 11.1 µM (inactive). Moreover, the GI50 with SN12C was 14.3 µM (inactive); in the test on SK-MEL-2, 4.2 µM (inactive); with SF-295, 3.09 µM (inactive); in the test with RXF 393 it was 4.99 µM (inactive); in the test on CAKI-1, 15.5 µM (inactive); with A498, 7.55 µM (inactive). In addition, the GI50 is 4.92 µM (inactive) with KM12; 40.3 µM (inactive) with BT-549; 1.64 µM (inactive) in the test on OVCAR-3; 22.5 µM (inactive) in the test on 786-0; 22.5 µM (inactive) in the test with TK-10; 5.24 µM (inactive) in the test on MOLT-4. For the same molecule, the GI50 with MDA-N was 2.42 µM (inactive).
On to `COc1ccccc1-n1c(=O)n(C)c(=O)n1C(C)(C)C`, for which the GI50 in the test with K562 is > 100 µM (inactive); in the test on Hs-578T it was > 100 µM (inactive); in the test with NCI-H522 it was 29.3 µM (inactive); in the test on MDA-MB-435, > 100 µM (inactive); in the test on OVCAR-4, > 100 µM (inactive); with SN12C, > 100 µM (inactive). Moreover, the GI50 in the test with SK-MEL-2, in the test on RXF 393, in the test on CAKI-1, with A498, in the test with KM12 and in the test with BT-549 was > 100 µM (inactive) in each case. Further, the GI50 in the test with OVCAR-3, in the test on 786-0, with TK-10, in the test with MOLT-4 and in the test with MDA-N was > 100 µM (inactive) in each case.
As to `CCCCc1ccc(Nc2nc(Cl)c3ncn(C4CC(Oc5ccc(C)cc5)C(COc5ccc(C)cc5)O4)c3n2)cc1` (stereo not given), the GI50 in the test on K562, in the test with IGROV-1, with Hs-578T, in the test on NCI-H522, with MDA-MB-435 and with SN12C was > 100 µM (inactive) throughout. Moreover, the GI50 with SK-MEL-2 was > 100 µM (inactive); in the test on SF-295, > 100 µM (inactive); with RXF 393 it was > 100 µM (inactive); in the test on CAKI-1, 6.52 µM (inactive); in the test on A498, > 100 µM (inactive); in the test with KM12 it was > 100 µM (inactive). Also, the GI50 in the test with BT-549, in the test with OVCAR-3, in the test with 786-0, in the test on TK-10, in the test with MOLT-4 and in the test with MDA-N was > 100 µM (inactive) in each case.
Regarding `CC(N)C(C)Cc1ccccc1` (stereo not given), the GI50 in the test on K562 was > 100 µM (inactive); with IGROV-1, > 100 µM (inactive); in the test with Hs-578T it was 77.1 µM (inactive); with NCI-H522, > 100 µM (inactive); with MDA-MB-435, > 100 µM (inactive); in the test with OVCAR-4, > 100 µM (inactive). Further, the GI50 in the test with SN12C, in the test on SF-295, in the test with RXF 393, with CAKI-1, in the test with A498 and with KM12 was > 100 µM (inactive) in each case. Further, the GI50 in the test on BT-549, with OVCAR-3, in the test with 786-0, with TK-10, with MOLT-4 and with MDA-N was > 100 µM (inactive) each time.
